Experimental data: patent US6517812B1, “Inhibition of psychostimulant-induced and nicotine-induced craving” (The General Hospital Corporation, priority 1997, dated 2003)
Several values for one entry are separate records, joined by “and”; a condition that tells them apart may be missing. Identical values can stand only once.

Columns and labels:
Assay type in all cases: in vivo
[1] = system: cocaine-dependent volunteers; test: Behavioral ratings of rush, high, low and craving (integer scale 0 to 3) after cocaine infusion; conditions: human
Excerpt: During FAIR and BOLD infusion scans, behavioral measures of rush, high, low, and craving were obtained in a continuous sequence each minute. Thus, over each 15 second epoch, one rating scale would be projected for the subject's response. Given four scales, it took one minute to cycle through the complete set of scales. Timing of scan initiation, infusion onset and offset, and scan completion were linked with ongoing behavioral reports to allow subsequent correlational analysis between behavioral ratings and fMRI acquisitions. Behavioral responses were acquired with a four-button button-press which had been adapted to the magnet environment by construction with non-magnetic components and filtering of its output at the Faraday shield.
To obtain meaningful behavioral ratings during scanning, subjects were trained beforehand. The day before scanning, subjects were interviewed in depth by one of two board-certified psychiatrists to fully describe their experience of cocaine intake. These descriptions were then categorized by the psychiatrist and subject into four components: the rush, high, low, and craving which were to be rated on an integer scale of 0 (none) to 3 (maximum). The individualized conventions for description of subjective responses were then tested, during the unblinded pre-infusion with 0.2 mg/kg cocaine, on a portable computer with a program simulating that used in the MRI.
Of the four behavioral measures, only craving was defined operationally in terms of the action the individual wanted to engage in (to get more cocaine). The other three behavioral measures, rush, high, and low, were defined in terms of subjective feelings which were not necessarily associated with a behavioral output, or associated with the planning and implementation of physical activity. Thus, by definition, only craving was defined as a motivational state. In general, rush experiences involved physical sensations of elevated heart rate and sweating, along with internal feelings variously characterized as ‘speeding’ sensations and sensations of ‘being out-of-control’. In contrast, the high experience was generally associated with feelings of self-confidence, well-being, and sociability. The low experience encompassed all negative subjective feelings potentially associated with cocaine use such as anxiety, paranoia, dysphoria, or anhedonia; the majority of subjects in this study discussed the low in terms of dysphoric affect distinct from a diminishment in the high experience.
Behavioral Data: The integer output for each behavioral rating was segregated by category of rush, high, low, and craving. For the group data in FIG. 2, the 18 measures for each behavioral category obtained during the 18 minute BOLD infusion scan were averaged for the 9 subjects with both interpretable behavioral data and fMRI data. This averaged data was then utilized in the correlational analysis of the cocaine fMRI data.

rat brain regions = test: CBV-weighted fMRI with MION contrast in rat after IV cocaine
[2] = system: cocaine-dependent volunteers; test: Physiological monitoring (HR, MBP, ETCO2, ECG) after double-blind IV cocaine infusion; conditions: human
Experimental: Subjects were admitted to the MGH GCRC for the screening procedures; those meeting all criteria were boarded overnight on the unit in preparation for imaging the following day. The following morning the subject had bilateral intravenous catheters placed (right forearm for cocaine or saline infusion, left forearm for serial venous blood sampling for quantitative cocaine levels). Scanning was performed between 11AM and 3PM during which the subject was in the scanner for two periods of time each lasting from 45 to 90 minutes. During each scanning period, one infusion was given, either cocaine (0.6 mg/kg, maximum dose 40 mg) or saline (both in a volume of 10 cc given over 30 seconds IV) in a randomized, double blind order. Five different scans were performed during each period. The infusion itself was made 5 minutes into an 18 minute long blood oxygen level dependent (BOLD) scan. The BOLD infusion scan was bracketed by flow-sensitive alternating inversion recovery (FAIR) and visual stimulation BOLD scans (the data from these scans were used to delineate the global vs. regional signal changes from cocaine). The time interval between functional scans within a period was kept to a minimum. The entire sequence of 5 functional scans was completed within 45-60 minutes. The subject was removed from the scanner for a 15-30 minute rest and then was returned to magnet and the sequence was repeated for the second infusion. A minimum of two hours had to pass between each double-blind infusion.
Physiologic monitoring was conducted using an In Vivo OmniTrak 3100 patient monitoring system (Orlando, Fla.) modified to permit on-line computer acquisition of physiologic measurements. Each subject was fitted with chest leads to record the electrocardiogram (ECG) and to measure heart rate (HR), a nasal cannula to measure respiratory rate and end-expiratory carbon dioxide (ETCO2), and a blood pressure cuff to measure non-invasively systemic mean blood pressure (MBP). The temporal resolution of the system for sampling blood pressure was once every two minutes.
Precautions taken to ensure safe conduct of the study included use of ACLS trained personnel, frequent running of mock codes with clocked performance of tasks and strict definition of individual tasks, and presence of a cardiologist at the time of all infusions whose sole responsibility was to monitor subject safety. Before and after completion of both infusions, subjects underwent a 12-lead ECG to determine the absence of any interval change from the experiments. Because of magnetohydrodynamic effects on the ECG tracing, a baseline rhythm strip was obtained prior to each drug infusion and all subsequent tracings were compared to that one.
Physiological Data: The data analysis and graphing program IGOR (WaveMetrics, Inc.) was used to analyze the data. Data were first analyzed by a 2 way ANOVA with drug treatment (saline, cocaine) and time of measurement as factors. When significant F values were obtained for one of the physiologic measures, individual time points were compared by post-hoc t-tests to determine if (and at what times) the change from baseline was significant. The Bonferroni correction for multiple comparisons was used; the criteria for significance at the 0.05 level was p<0.007.

[3] = 0.6 mg/kg IV blinded, scale 0-3
[4] = 0.6 mg/kg IV, post-infusion, 0.6 mg/kg
[5] = rat frontal cortex, cocaine 0.5 mg/kg IV

COC(=O)[C@H]1[C@@H](OC(=O)c2ccccc2)C[C@@H]2CC[C@H]1N2C [cocaine]
craving rating ([1]; 0.2 mg/kg IV, unblinded): 1.0±1.3 | high rating ([1]; 0.2 mg/kg IV, unblinded): 1.7±1.2 | low rating ([1]; 0.2 mg/kg IV, unblinded): 0.8±0.8 | rush rating ([1]; 0.2 mg/kg IV, unblinded): 1.2±1.1 | peak craving rating [1, 3]: 1.3±0.9 | peak high rating [1, 3]: 2.1±0.8 | peak low rating [1, 3]: 0.9±0.8 | peak rush rating (mean±SD) [1, 3]: 2.2±1.1 | time of peak high ([1]; 0.6 mg/kg IV, post-infusion): 3 min | time of peak rush ([1]; 0.6 mg/kg IV, post-infusion): 3 min | time of peak craving [1, 4]: 12 min and 11 to 12 min | time of peak low [1, 4]: 11 min and 11 to 12 min | craving rating ([1]; retest infusion, four subjects): 1.0±1.2 | high rating ([1]; retest infusion, four subjects): 2.3±0.5 | low rating ([1]; retest infusion, four subjects): 1.0±0.8 | rush rating ([1]; retest infusion, four subjects): 1.8±1.0 | maximum increase of cortical CBV over baseline (rat brain regions; [5]): 32% | time to peak CBV (rat brain regions; [5]): approximately 3.5 minutes | time of return of CBV to baseline (rat brain regions; rat frontal cortex, cocaine 0.5 mg/kg IV, post infusion): ≤ 25 min | time to maximum CBV change, all cortical and subcortical regions (rat brain regions; rat, after initiation of 0.5 mg/kg cocaine infusion): 3 to 6 min | increase in CBV at peak, agranular lateral frontal neocortex (rat brain regions; rat, cocaine 0.5 mg/kg IV): ~30% | increase in CBV at peak, agranular medial frontal neocortex (rat brain regions; rat, cocaine 0.5 mg/kg IV): approximately 40% | average CBV response of four subcortical regions relative to five frontal and parietal cortical regions (rat brain regions; rat, cocaine 0.5 mg/kg IV, p<0.005): 45% | cardiac rhythm (ECG) ([2]; all subjects throughout the study): Normal sinus rhythm | time for HR, MBP and ETCO2 to return to baseline ([2]; cocaine 0.6 mg/kg IV): ≤ 2 h | heart rate (HR) ([2]; cocaine 0.6 mg/kg IV over 30 seconds, n=17, 2 minutes post-infusion): 79±16 bpm | mean blood pressure (MBP) ([2]; cocaine 0.6 mg/kg IV, 2 minutes post-infusion): 101±12 torr | mean blood pressure (MBP) ([2]; cocaine 0.6 mg/kg IV, 5 minutes): 111±15 torr | end-tidal carbon dioxide (ETCO2) ([2]; cocaine 0.6 mg/kg IV, by 10 minutes): 36±4 mm Hg | heart rate (HR) ([2]; cocaine 0.6 mg/kg IV, n=17, 5 minutes post infusion): 82±12 bpm | heart rate (HR) ([2]; cocaine 0.6 mg/kg IV, n=17, 10 minutes post infusion): 93±14 bpm
